The conditions of series [1]: mice, 10 to 30 mg/kg each day (Kim et al. 2004); cited from earlier work.
Series [2] concerns hepatic SMAD1/5/8 phosphorylation. Description: Iron-dextran challenge: hepatic SMAD1/5/8 phosphorylation in mice. The note with it: 10 mg/kg co-injected with iron-dextran, intravenous, 1 hour. It is filed as in vivo, C57BL/6 mice.
Series [3] concerns zebrafish vascular development (KDR). Description: Zebrafish vascular development (effects of KDR inhibition). It is filed as in vivo. The conditions noted are these: at the doses used for dorsalization.
For series [4], the system named is PI-3 kinase, JAK, STAT, PKA, PKC, and various other pathways. The conditions noted are these: previous reports; cited from earlier work.
Series [5] concerns zebrafish embryos. The format is in vivo. Here is the method: According to one example of the whole animal-based screening methods of the invention, 1-2 hour old zebrafish embryos are arrayed in the wells of 96-well plates, three embryos per well. A chemical library, which is comprised of tens of thousands of diverse small molecules, is then pin-transferred into the wells at a final concentration of ˜2 to 10 uM. Embryos are observed over the course of next 24-48 hours and scored under a dissecting microscope for phenotype consistent with loss of BMP signaling (dorsalized embryos, FIG. 1) or with the loss of nodal signaling (cyclopia, FIG. 2).
Small molecule screening in zebrafish was performed as previously described (Peterson et al., Nat. Biotechnol. 22:595-599, 2004) with several modifications. Pairs of wild-type zebrafish were mated, and newly-fertilized eggs were arrayed in triplicate in 96-well plates containing E3 buffer. At 4 hours post fertilization (hpf), compounds were added to wells at 5-10 μM. Embryos were incubated at 28.5° C., and gross morphology of embryos was examined at 12, 24, and 48 hpf for dorsalization or ventralization of embryonic axis, as previously described (Mullins et al., Development 123:81-93, 1996). In total, 7,570 compounds were screened, including synthetic screening compounds (Chembridge Corporation, 5,580 small molecules) and known bioactive compounds (Microsource Discovery Systems, 1,840 small molecules and Sigma-Aldrich, 150 small molecules). For follow up studies, Compound C/Dorsomorphin and Ara-A (adenine 9-β-D-arabinofurano-side) were purchased from Sigma (St. Louis, Mo.), and C75 was purchased from EMD Biosciences (San Diego, Calif.).

Series [6] has as its system zebrafish. As to the kind of experiment: Zebrafish bone mineralization (calcein staining). The note with it: at 10 dpf. It is filed as in vivo. Here is the method:
At 5 dpf and onward, larvae were fed for 1 hour every other day. […] At 10 dpf, larvae were immersed in calcein (0.2%) for 30 minutes, as previously described (Du et al., Dev. Biol. 238:239-246, 2001). […] Calcified skeletal structures were visualized by green fluorescence and the number of vertebral bodies counted.

For series [7], the system named is hepcidin promoter. As to the kind of experiment: Hepcidin promoter luciferase reporter assay (Hep-Luc) in Hep3B cells. It is filed as cell-based. The procedure:
Murine PASMCs grown to 50% confluence in 6-well plates were transiently transfected with 0.3 μg Id1 promoter luciferase reporter construct (BRE-Luc, Dr. Peter ten Dijke, Leiden University Medical Center, Netherlands (Korchynskyi et al., J. Biol. Chem. 277:4883-4891, 2002)) in combination with 0.6 μg plasmids expressing constitutively-active forms of BMP type I receptors (caALK2, caALK3, or caALK6, kindly provided by Dr. Kohei Miyazono, University of Tokyo, Japan (Fujii et al., Mol. Biol. Cell 10:3801-3813, 1999)), using Fugene6 (Roche). To assess Activin and […] type I receptor function, PASMCs were transiently transfected with 0.3 μg PAI-1 promoter luciferase reporter construct (CAGA-Luc, Dr. Peter ten Dijke (Dennler et al., Embo J. 17:3091-3100, 1998)) in combination with 0.6 μg plasmids expressing constitutively active forms of type I receptors (caALK4, caALK5, and caALK7, also provided by Dr. Kohei Miyazono (Okadome et al., J. Biol. Chem. 271:21687-21690, 1996; Shimizu et al., Genes Cells 3:125-134, 1998)). For both reporters, 0.2 μg pRL-TK Renilla luciferase (Promega) was used to control for transfection efficiency. […] Cell extracts were harvested, and relative promoter activity quantitated by the ratio of firefly to Renilla luciferase activity using the dual luciferase assay kit (Promega). […] Hepcidin promoter activity was measured by luciferase assay as above.
For orientation: Reporter assays use an easily measured gene product as a stand-in for the process of interest.

The test system of series [8] is C2C12 cells. Description: BMP-induced alkaline phosphatase activity (osteogenic differentiation) in C2C12 cells. The format is cell-based. Here is the method:
C2C12 cells were seeded into 96 well plates at 2000 cells per well in DMEM supplemented with 2% FBS. Wells were treated in quadruplicate with BMP ligands and Compound C/Dorsomorphin or vehicle. Cells were harvested after 5 days in culture with 50 μl Tris buffered saline/1% Triton X-100. Lysates were added to p-nitro-phenylphosphate reagent in 96-well plates (Sigma) for 1 hour, and alkaline phosphatase activity expressed as absorbance at 405 nm. Cell viability and quantity were measured by Cell-titer Glo (Promega) and binding of nuclear dye CyQuant (Invitrogen), respectively, using replicate wells treated identically to those used for alkaline phosphatase measurements.

Where [9] appears, read: 10 μM, continuous exposure from 8 hpf, scored at 48 hpf.

Entries after “also recorded” stand apart in the source; their conditions may differ.

On to `c1cc(-c2cnn3cc(-c4ccc(OCCN5CCCCC5)cc4)cnc23)ccn1` [Compound C/Dorsomorphin], for which the tolerability entry in series [1] is “without obvious toxicity”. Further, the “effect on iron-mediated increase in hepatic SMAD1/5/8 phosphorylation” value in series [2] is “abolished; also recorded: did not exhibit an increase”. In series [3], the “effects of KDR inhibition on vascular development (intersomitic blood vessels)” value is on record as “did not observe any of the known effects of KDR inhibition”. In addition, in series [4], the “inhibition of activation of PI-3 kinase, JAK, STAT, PKA, PKC, and various other pathways” value is “does not exhibit significant inhibition”. In series [5] (setting [9]), this molecule registered a Moderate % of 0% and a Normal % of 15%. The Severe % in series [5] (10 μM, interval exposure 2-4 hpf, scored at 48 hpf) is recorded as 0%. The “Moderate dorsalization, number of embryos” value in series [5] (10 μM, interval exposure 4-8 hpf, scored at 48 hpf) is given as 8. Further, the “Moderate-Severe, number of embryos” value in series [5] (DM 2 μM from 3 hpf, scored at 48 hpf) is given as 0. Also, the dorsalization phenotype entry in series [5] (≧5 μM at ≦8 hpf) was “phenocopied with high penetrance the spectrum of dorsalization defects”. For the same molecule, the “number of mineralized vertebrae” value in series [6] (4 μM from 24 hpf, P<0.001 vs DMSO) was “significant decrease”. Besides, in series [6] (1-4 μM from 24 hpf), the “effect on vertebral and craniofacial bone calcification (calcein staining)” value was “inhibition of bone mineralization; also recorded: disrupts vertebral bone mineralization; also recorded: disrupts craniofacial bone mineralization; also recorded: inhibits bone mineralization; also recorded: decrease in vertebral segment and craniofacial bone calcification; also recorded: reduced vertebral segment and craniofacial bone calcification”; the “viability and gross morphology” value is “morphologically and functionally normal; also recorded: without disrupting overall morphology; also recorded: viable fish at 10 dpf without evidence of dorsalization; also recorded: morphologically grossly normal and viable”. Further, the “effect on HJV-induced hepcidin promoter activity (Hep-Luc)” value in series [7] (Hep3B cells transfected with HJV) is recorded as “effectively abrogated; also recorded: blocked”. In addition, the “effect on BMP2-induced hepcidin promoter activity (Hep-Luc)” value in series [7] (Hep3B cells, 10 μM, BMP2 25 ng/ml) is given as “effectively abrogated”. In series [8] (4 μM vs noggin 100 ng/ml), the “inhibition of osteogenic differentiation compared with noggin” value was “more potent than that seen with pretreatment of cells with 100 ng/ml of noggin”. In addition, the “effect on BMP4- or BMP6-induced alkaline phosphatase activity (osteogenic differentiation)” value in series [8] (4 μM, 5 days) is recorded as “completely inhibits; also recorded: almost completely abolished; also recorded: inhibited”.

Values taken from US20100093760A1, “METHODS FOR IDENTIFYING COMPOUNDS THAT MODULATE CELL SIGNALING AND METHODS EMPLOYING SUCH COMPOUNDS” (The General Hospital Corporation, priority 2006, published 2010).
